# Laboratory results: article PMC5413906, “Structural and functional analysis of Oceanobacillus iheyensis macrodomain reveals a network of waters involved in substrate binding and catalysis” (Open Biology, 2017)
# Legend:
# Assay type in all cases: binding
# [1] = biological target: T1, OiMacroD (Oceanobacillus iheyensis, UniProt Q8EP31, G37V); experiment: X-ray crystal structure, […] Å; settings: crystal soaked with 20 mM ADPr; active site
# T1 construct: gene OB2288
# [2] = biological target: T2, OiMacroD (Oceanobacillus iheyensis, UniProt Q8EP31); experiment: thermal shift, SYPRO Orange; settings: 50 mM sodium phosphate pH 7.0, 1 mM ligand; without ligand Tm = 41.7 ± 0.2 °C
# T2 construct: gene OB2288
# [3] = biological target: T2, OiMacroD; experiment: X-ray crystal structure, […] Å; settings: crystal soaked with 20 mM ADPr; active site
# [4] = biological target: T2, OiMacroD; experiment: thermal shift, SYPRO Orange; settings: 50 mM sodium phosphate pH 7.0, 1 mM ligand; without ligand Tm = 41.7 ± 0.2 °C; remark: listed apart in the source
# [5] = biological target: T2, OiMacroD; experiment: X-ray crystal structure, […] Å; settings: crystal soaked with 20 mM ADP; active site, two alternative conformations
# [6] = biological target: T2, OiMacroD; experiment: thermal shift, SYPRO Orange; settings: 50 mM sodium phosphate pH 7.0, 1 mM ligand; without ligand Tm = 41.7 ± 0.2 °C; remark: listed apart in the source
# T2 sequence (Q8EP31 entry or part of it): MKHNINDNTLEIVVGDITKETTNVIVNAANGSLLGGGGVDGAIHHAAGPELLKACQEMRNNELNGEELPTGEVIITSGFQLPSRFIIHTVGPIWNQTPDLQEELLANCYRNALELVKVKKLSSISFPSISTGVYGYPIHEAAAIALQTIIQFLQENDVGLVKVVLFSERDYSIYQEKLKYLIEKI
# T1 sequence (Q8EP31 entry or part of it G37V): as the sequence (Q8EP31 entry or part of it) above, with G37V counted along it
compound,measurement,setting,value
Nc1ncnc2c1ncn2[C@@H]1O[C@H](COP(=O)(O)OP(=O)(O)OC[C@H]2OC(O)[C@H](O)[C@@H]2O)[C@@H](O)[C@H]1O (stereo partly drawn) [ADP-ribose],"X-ray crystal structure, 1.35 Å",[1],OiMacroD G37V (ADPr) (5LAU)
same,Tm with 1 mM ADPr,[2],47.8 ± 0.1 °C
same,"X-ray crystal structure, 1.77 Å",[3],OiMacroD-ADPr (5L9K)
Nc1ncnc2c1ncn2[C@@H]1O[C@H](COP(=O)(O)OP(=O)(O)O)[C@@H](O)[C@H]1O [ADP],Tm with 1 mM ADP,[4],44.0 ± 0.2 °C
same,"X-ray crystal structure, 1.75 Å",[5],OiMacroD-ADP (5L9Q)
Nc1ncnc2c1ncn2[C@@H]1O[C@H](COP(=O)(O)O)[C@@H](O)[C@H]1O [AMP],Tm with 1 mM AMP,[6],43.3 ± 0.1 °C
